Assay results reported in patent publication US7429660B2, “ATM inhibitors” (Kudos Pharmaceuticals Limited, priority 2003, dated 2008).

Biological target: T1, ATM protein immunoprecipitated from HeLa cell nuclear extract (Homo sapiens, UniProt Q13315)
T1 construct: ATM protein was immunoprecipitated from HeLa cell nuclear extract; endogenous in cells; host or cells: HeLa cell nuclear extract (immunoprecipitated with rabbit polyclonal anti-ATM antiserum)
Assay: In vitro ATM inhibition assay (phosphorylation of GSTp53N66 on serine 15, chemiluminescent detection); further: tested normally from 100 µM down to 0.1 nM
Assay type: biochemical
Conditions: read-out: IC50 values (the concentration at which 50% of the enzyme activity is inhibited), ATM inhibition
Summary of the method: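 Immunoprecipitated HeLa nuclear ATM (C-terminal anti-sera) with GSTp53N66 substrate in Hepes pH 7.4 buffer with MgCl2/MnCl2; inhibitor preincubated 10 min at 37 °C, then Na-ATP added, 1 h at 37 °C.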

T1 sequence (Q13315 whole entry): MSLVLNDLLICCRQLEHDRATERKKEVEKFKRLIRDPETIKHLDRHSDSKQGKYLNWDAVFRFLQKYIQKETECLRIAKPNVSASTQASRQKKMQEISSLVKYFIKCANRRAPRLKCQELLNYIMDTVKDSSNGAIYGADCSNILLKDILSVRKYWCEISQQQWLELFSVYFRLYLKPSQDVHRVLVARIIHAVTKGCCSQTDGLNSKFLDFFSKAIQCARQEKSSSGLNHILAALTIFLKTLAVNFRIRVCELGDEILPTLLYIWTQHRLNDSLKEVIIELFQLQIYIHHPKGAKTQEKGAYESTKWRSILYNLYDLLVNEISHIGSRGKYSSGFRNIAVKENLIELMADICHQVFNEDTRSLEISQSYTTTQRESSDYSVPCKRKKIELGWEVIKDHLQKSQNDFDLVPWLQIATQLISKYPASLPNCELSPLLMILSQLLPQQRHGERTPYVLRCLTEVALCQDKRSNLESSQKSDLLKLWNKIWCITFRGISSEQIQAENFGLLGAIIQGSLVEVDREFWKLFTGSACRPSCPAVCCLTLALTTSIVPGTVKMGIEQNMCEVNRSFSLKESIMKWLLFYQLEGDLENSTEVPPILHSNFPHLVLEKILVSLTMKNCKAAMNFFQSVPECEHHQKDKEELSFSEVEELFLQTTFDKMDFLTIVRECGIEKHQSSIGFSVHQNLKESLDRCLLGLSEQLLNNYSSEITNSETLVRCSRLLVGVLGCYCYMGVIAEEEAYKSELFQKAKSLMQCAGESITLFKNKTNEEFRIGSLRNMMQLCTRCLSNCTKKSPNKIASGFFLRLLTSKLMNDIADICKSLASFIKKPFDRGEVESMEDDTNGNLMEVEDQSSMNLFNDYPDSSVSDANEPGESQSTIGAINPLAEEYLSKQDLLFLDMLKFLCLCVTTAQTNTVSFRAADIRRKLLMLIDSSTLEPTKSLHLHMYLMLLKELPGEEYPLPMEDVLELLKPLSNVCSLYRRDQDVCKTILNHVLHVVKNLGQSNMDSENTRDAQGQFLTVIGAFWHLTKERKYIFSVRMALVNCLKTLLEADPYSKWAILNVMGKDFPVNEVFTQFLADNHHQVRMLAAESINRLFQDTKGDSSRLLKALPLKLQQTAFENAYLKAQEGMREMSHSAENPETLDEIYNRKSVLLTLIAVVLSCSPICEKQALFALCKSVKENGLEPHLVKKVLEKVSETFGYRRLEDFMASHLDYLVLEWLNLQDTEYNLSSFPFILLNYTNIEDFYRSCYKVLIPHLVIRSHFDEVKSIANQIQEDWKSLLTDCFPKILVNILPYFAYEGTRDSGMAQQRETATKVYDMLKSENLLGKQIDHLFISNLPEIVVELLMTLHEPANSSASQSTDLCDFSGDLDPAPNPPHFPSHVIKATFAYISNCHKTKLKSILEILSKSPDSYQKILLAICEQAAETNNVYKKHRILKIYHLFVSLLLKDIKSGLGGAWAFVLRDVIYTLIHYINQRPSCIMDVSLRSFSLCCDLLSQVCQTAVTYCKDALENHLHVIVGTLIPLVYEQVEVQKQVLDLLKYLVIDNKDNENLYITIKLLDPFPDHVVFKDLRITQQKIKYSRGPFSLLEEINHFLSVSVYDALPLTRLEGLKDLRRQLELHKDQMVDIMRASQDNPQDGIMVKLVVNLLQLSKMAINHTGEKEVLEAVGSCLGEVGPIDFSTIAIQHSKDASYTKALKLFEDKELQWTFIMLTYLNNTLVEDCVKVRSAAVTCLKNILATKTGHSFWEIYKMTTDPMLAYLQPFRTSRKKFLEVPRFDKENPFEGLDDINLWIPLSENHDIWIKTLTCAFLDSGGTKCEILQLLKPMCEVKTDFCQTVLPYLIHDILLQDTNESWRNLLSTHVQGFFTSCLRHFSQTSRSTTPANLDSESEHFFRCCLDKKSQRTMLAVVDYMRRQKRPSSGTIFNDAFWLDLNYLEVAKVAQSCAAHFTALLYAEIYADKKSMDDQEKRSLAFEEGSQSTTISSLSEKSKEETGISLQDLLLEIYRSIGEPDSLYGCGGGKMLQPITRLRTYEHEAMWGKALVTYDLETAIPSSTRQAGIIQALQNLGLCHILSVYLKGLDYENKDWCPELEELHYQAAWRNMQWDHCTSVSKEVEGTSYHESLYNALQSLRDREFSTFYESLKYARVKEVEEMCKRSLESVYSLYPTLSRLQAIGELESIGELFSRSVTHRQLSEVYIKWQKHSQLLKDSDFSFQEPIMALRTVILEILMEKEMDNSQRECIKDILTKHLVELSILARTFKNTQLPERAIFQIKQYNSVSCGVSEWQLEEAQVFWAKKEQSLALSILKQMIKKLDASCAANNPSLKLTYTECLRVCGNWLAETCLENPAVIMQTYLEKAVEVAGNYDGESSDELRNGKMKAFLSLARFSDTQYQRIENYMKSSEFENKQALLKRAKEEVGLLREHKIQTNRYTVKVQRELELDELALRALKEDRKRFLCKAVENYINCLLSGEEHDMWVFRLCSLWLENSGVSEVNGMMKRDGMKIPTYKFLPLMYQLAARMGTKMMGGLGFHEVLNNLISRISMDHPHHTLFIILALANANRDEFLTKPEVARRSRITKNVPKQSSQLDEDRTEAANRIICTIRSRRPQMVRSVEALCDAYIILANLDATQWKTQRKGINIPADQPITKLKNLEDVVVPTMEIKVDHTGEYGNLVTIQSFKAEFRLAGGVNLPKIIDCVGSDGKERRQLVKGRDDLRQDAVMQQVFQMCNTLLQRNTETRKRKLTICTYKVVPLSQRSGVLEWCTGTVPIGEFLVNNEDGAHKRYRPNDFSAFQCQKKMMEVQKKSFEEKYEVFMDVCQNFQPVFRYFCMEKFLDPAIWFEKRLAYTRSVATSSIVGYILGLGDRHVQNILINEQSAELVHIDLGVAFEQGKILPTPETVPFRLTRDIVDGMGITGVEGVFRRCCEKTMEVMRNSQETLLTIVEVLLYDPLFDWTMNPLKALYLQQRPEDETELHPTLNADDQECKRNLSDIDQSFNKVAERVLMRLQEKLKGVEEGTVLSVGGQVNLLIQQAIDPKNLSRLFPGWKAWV

IC50, < 200 nM:
O=C(CN1CCN(c2ccccn2)CC1)Nc1ccc2c(c1)Cc1cccc(-c3cc(=O)cc(N4CCOCC4)o3)c1S2 [Compound 343]
O=c1cc(-c2cccc3c2Sc2ccc(OCCN4CCOCC4)cc2S3)oc(N2CCOCC2)c1 [Compound 403]
CN(C)CCNCCCN1c2ccccc2Sc2c(-c3cc(=O)cc(N4CCOCC4)o3)cccc21 [Compound 282]
CN(CCOc1ccc2c(c1)Sc1cccc(-c3cc(=O)cc(N4CCOCC4)o3)c1S2)CCc1ccccn1 [Compound 398]
CN1CCN(CCCN2c3ccccc3Sc3c(-c4cc(=O)cc(N5CCOCC5)o4)cccc32)CC1 [Compound 288]
O=C(Nc1ccc2c(c1)Sc1cccc(-c3cc(=O)cc(N4CCOCC4)o3)c1S2)c1ccc2c(c1)OCO2 [Compound 25]
CCN(CC)CCCNCCCN1c2ccccc2Sc2c(-c3cc(=O)cc(N4CCOCC4)o3)cccc21 [Compound 277]
CCOC(=O)C1CCN(CCCN2c3ccccc3Sc3c(-c4cc(=O)cc(N5CCOCC5)o4)cccc32)CC1 [Compound 312]
O=C(CCN1CCN(c2ccccn2)CC1)Nc1ccc2c(c1)Sc1cccc(-c3cc(=O)cc(N4CCOCC4)o3)c1S2 [Compound 120]
CN(C)CCN(C)CC(=O)Nc1ccc2c(c1)Sc1cccc(-c3cc(=O)cc(N4CCOCC4)o3)c1S2 [Compound 73]
O=c1cc(-c2cccc3c2Sc2ccc(S(=O)(=O)NCC(F)(F)F)cc2C3)oc(N2CCOCC2)c1 [Compound 454]
O=C(COc1ccc2c(c1)Sc1cccc(-c3cc(=O)cc(N4CCOCC4)o3)c1S2)Nc1cccnc1 [Compound 419]
CN(C)CCN1CCN(CCC(=O)Nc2ccc3c(c2)Sc2cccc(-c4cc(=O)cc(N5CCOCC5)o4)c2S3)CC1 [Compound 124]
O=C(CN1CCOCC1)Nc1ccc2c(c1)Sc1cccc(-c3cc(=O)cc(N4CCOCC4)o3)c1S2 [Compound 51]
CCN(CCC(=O)Nc1ccc2c(c1)Sc1cccc(-c3cc(=O)cc(N4CCOCC4)o3)c1S2)Cc1ccccc1 [Compound 111]
O=C(c1ccc2c(c1)Sc1cccc(-c3cc(=O)cc(N4CCOCC4)o3)c1S2)N1CCN(c2ccccn2)CC1 [Compound 8]
CN(C)Cc1ccc(CSCCNCCOc2ccc(-c3cc(=O)cc(N4CCOCC4)o3)c3c2Sc2ccccc2S3)o1 [Compound 170]
COc1cc(C(=O)Nc2ccc3c(c2)Sc2cccc(-c4cc(=O)cc(N5CCOCC5)o4)c2S3)cc(OC)c1OC [Compound 40]
O=C(CCN1CCCCC1)Nc1ccc2c(c1)Sc1cccc(-c3cc(=O)cc(N4CCOCC4)o3)c1S2 [Compound 92]
O=c1cc(-c2cccc3c2Sc2ccc(OCCNCC(F)(F)F)cc2S3)oc(N2CCOCC2)c1 [Compound 379]
CC(=O)N1CCN(CCC(=O)Nc2ccc3c(c2)Sc2cccc(-c4cc(=O)cc(N5CCOCC5)o4)c2S3)CC1 [Compound 116]
C[C@@H]1CN(S(=O)(=O)c2ccc3c(c2)Cc2cccc(-c4cc(=O)cc(N5CCOCC5)o4)c2S3)C[C@H](C)O1 [Compound 478]
CC(C)CNCCCN1c2ccccc2Sc2c(-c3cc(=O)cc(N4CCOCC4)o3)cccc21 [Compound 242]
O=C(CCN1CCN(c2ncccn2)CC1)Nc1ccc2c(c1)Cc1cccc(-c3cc(=O)cc(N4CCOCC4)o3)c1S2 [Compound 355]
CC(=O)N1CCN(CCC(=O)Nc2ccc3c(c2)Cc2cccc(-c4cc(=O)cc(N5CCOCC5)o4)c2S3)CC1 [Compound 349]
COCCN1CCN(CC(=O)Nc2ccc3c(c2)Cc2cccc(-c4cc(=O)cc(N5CCOCC5)o4)c2S3)CC1 [Compound 339]
CC(C)NC(=O)CN1CCN(CCC(=O)Nc2ccc3c(c2)Sc2cccc(-c4cc(=O)cc(N5CCOCC5)o4)c2S3)CC1 [Compound 123]
CCN1CCCC1CNCCC(=O)Nc1ccc2c(c1)Sc1cccc(-c3cc(=O)cc(N4CCOCC4)o3)c1S2 (stereo not shown) [Compound 126]
O=c1cc(-c2cccc3c2Sc2ccccc2N3CCCNCCc2cnc[nH]2)oc(N2CCOCC2)c1 [Compound 271]
CC(=O)N1CCN(S(=O)(=O)c2ccc3c(c2)Cc2cccc(-c4cc(=O)cc(N5CCOCC5)o4)c2S3)CC1 [Compound 476]
COCCOCC(=O)Nc1ccc2c(c1)Sc1cccc(-c3cc(=O)cc(N4CCOCC4)o3)c1S2 [Compound 48]
O=C(COc1ccc2c(c1)Sc1cccc(-c3cc(=O)cc(N4CCOCC4)o3)c1S2)N1CCN(C(=O)c2ccco2)CC1 [Compound 414]
COc1ccc(CNCC(=O)Nc2ccc3c(c2)Sc2cccc(-c4cc(=O)cc(N5CCOCC5)o4)c2S3)cc1 [Compound 64]
Cn1nc(O)cc1C(=O)Nc1ccc2c(c1)Sc1cccc(-c3cc(=O)cc(N4CCOCC4)o3)c1S2 [Compound 37]
N#CCNC(=O)COc1ccc2c(c1)Sc1cccc(-c3cc(=O)cc(N4CCOCC4)o3)c1S2 [Compound 409]
O=C(COc1ccc2c(c1)Cc1cccc(-c3cc(=O)cc(N4CCOCC4)o3)c1S2)NC1CCC1 [Compound 499]
CN1CCN(CCCNCCCN2c3ccccc3Sc3c(-c4cc(=O)cc(N5CCOCC5)o4)cccc32)CC1 [Compound 270]
CC(C)NC(=O)CN1CCN(CC(=O)Nc2ccc3c(c2)Sc2cccc(-c4cc(=O)cc(N5CCOCC5)o4)c2S3)CC1 [Compound 85]
Cc1ccc(N2CCN(CCCN3c4ccccc4Sc4c(-c5cc(=O)cc(N6CCOCC6)o5)cccc43)CC2)c(C)c1 [Compound 294]
O=c1cc(-c2cccc3c2Sc2ccccc2N3CCCNCC2CCCCC2)oc(N2CCOCC2)c1 [Compound 253]
C[C@@H]1CN(CCC(=O)Nc2ccc3c(c2)Sc2cccc(-c4cc(=O)cc(N5CCOCC5)o4)c2S3)C[C@H](C)O1 [Compound 109]
O=C(c1ccc2c(c1)Sc1cccc(-c3cc(=O)cc(N4CCOCC4)o3)c1S2)N1CCN(c2ccncc2)CC1 [Compound 9]
CC(=O)N1CCC(C(=O)Nc2ccc3c(c2)Sc2cccc(-c4cc(=O)cc(N5CCOCC5)o4)c2S3)CC1 [Compound 38]
O=C(CCN1CCN(c2ccc(F)cc2)CC1)Nc1ccc2c(c1)Cc1cccc(-c3cc(=O)cc(N4CCOCC4)o3)c1S2 [Compound 354]
CN(C)CCN1CCN(CC(=O)Nc2ccc3c(c2)Cc2cccc(-c4cc(=O)cc(N5CCOCC5)o4)c2S3)CC1 [Compound 347]
O=C(CCN1CCN(c2ccc(F)cc2)CC1)Nc1ccc2c(c1)Sc1cccc(-c3cc(=O)cc(N4CCOCC4)o3)c1S2 [Compound 121]
O=C(COc1ccc2c(c1)Sc1cccc(-c3cc(=O)cc(N4CCOCC4)o3)c1S2)NCCN1CCNC1=O [Compound 441]
NC(=O)C1CCN(C(=O)COc2ccc3c(c2)Sc2cccc(-c4cc(=O)cc(N5CCOCC5)o4)c2S3)CC1 [Compound 416]
CCCCNCCOc1ccc2c(c1)Sc1cccc(-c3cc(=O)cc(N4CCOCC4)o3)c1S2 [Compound 382]
COc1ccc(CNCCC(=O)Nc2ccc3c(c2)Sc2cccc(-c4cc(=O)cc(N5CCOCC5)o4)c2S3)cc1 [Compound 103]
O=C(COc1ccc2c(c1)Cc1cccc(-c3cc(=O)cc(N4CCOCC4)o3)c1S2)NC[C@@H]1CCCCC[C@@H]1O [Compound 513]
O=c1cc(-c2cccc3c2Sc2ccccc2N3CCCNCCN2CCN(Cc3ccccc3)CC2)oc(N2CCOCC2)c1 [Compound 274]
CC(C)NC(=O)CN1CCN(CC(=O)Nc2ccc3c(c2)Cc2cccc(-c4cc(=O)cc(N5CCOCC5)o4)c2S3)CC1 [Compound 346]
O=c1cc(-c2cccc3c2Sc2ccccc2N3CCCNCc2cccnc2)oc(N2CCOCC2)c1 [Compound 267]
CC(C)(C)OC(=O)N1CCN(CCCN2c3ccccc3Sc3c(-c4cc(=O)cc(N5CCOCC5)o4)cccc32)CC1 [Compound 298]
CCC(C)(C)NS(=O)(=O)c1ccc2c(c1)Cc1cccc(-c3cc(=O)cc(N4CCOCC4)o3)c1S2 [Compound 488]
CN1CCN(C(=O)COc2ccc3c(c2)Sc2cccc(-c4cc(=O)cc(N5CCOCC5)o4)c2S3)CC1 [Compound 450]
O=C(COc1ccc2c(c1)Cc1cccc(-c3cc(=O)cc(N4CCOCC4)o3)c1S2)NC(CO)(CO)CO [Compound 505]
O=c1cc(-c2ccc(OCCCNC3CCC3)c3c2Sc2ccccc2S3)oc(N2CCOCC2)c1 [Compound 182]
CC(C)NC(=O)CN1CCN(CCCN2c3ccccc3Sc3c(-c4cc(=O)cc(N5CCOCC5)o4)cccc32)CC1 [Compound 296]
O=c1cc(-c2cccc3c2Sc2ccc(S(=O)(=O)N4CCCC(CO)C4)cc2C3)oc(N2CCOCC2)c1 (stereo not shown) [Compound 471]
CCN1CCN(CCC(=O)Nc2ccc3c(c2)Sc2cccc(-c4cc(=O)cc(N5CCOCC5)o4)c2S3)CC1 [Compound 119]
C=CCNS(=O)(=O)c1ccc2c(c1)Cc1cccc(-c3cc(=O)cc(N4CCOCC4)o3)c1S2 [Compound 462]
COCCN1CCN(C(=O)COc2ccc3c(c2)Sc2cccc(-c4cc(=O)cc(N5CCOCC5)o4)c2S3)CC1 [Compound 435]
O=C(CN1CCN(CCO)CC1)Nc1ccc2c(c1)Cc1cccc(-c3cc(=O)cc(N4CCOCC4)o3)c1S2 [Compound 348]
C[C@@H]1CN(CCOc2ccc3c(c2)Sc2cccc(-c4cc(=O)cc(N5CCOCC5)o4)c2S3)C[C@H](C)O1 [Compound 359]
O=C(CCNCc1ccncc1)Nc1ccc2c(c1)Sc1cccc(-c3cc(=O)cc(N4CCOCC4)o3)c1S2 [Compound 110]
